Structures can show the parent of a compound that is named as a salt.
Target: T1, thromboxane synthetase from rabbit platelet microsomes (Oryctolagus cuniculus, UniProt G1TAZ9)
T1 construct: thromboxane synthetase from rabbit platelet microsomes; from tissue; host or cells: rabbit platelet microsomes
T1 sequence (G1TAZ9 1-530): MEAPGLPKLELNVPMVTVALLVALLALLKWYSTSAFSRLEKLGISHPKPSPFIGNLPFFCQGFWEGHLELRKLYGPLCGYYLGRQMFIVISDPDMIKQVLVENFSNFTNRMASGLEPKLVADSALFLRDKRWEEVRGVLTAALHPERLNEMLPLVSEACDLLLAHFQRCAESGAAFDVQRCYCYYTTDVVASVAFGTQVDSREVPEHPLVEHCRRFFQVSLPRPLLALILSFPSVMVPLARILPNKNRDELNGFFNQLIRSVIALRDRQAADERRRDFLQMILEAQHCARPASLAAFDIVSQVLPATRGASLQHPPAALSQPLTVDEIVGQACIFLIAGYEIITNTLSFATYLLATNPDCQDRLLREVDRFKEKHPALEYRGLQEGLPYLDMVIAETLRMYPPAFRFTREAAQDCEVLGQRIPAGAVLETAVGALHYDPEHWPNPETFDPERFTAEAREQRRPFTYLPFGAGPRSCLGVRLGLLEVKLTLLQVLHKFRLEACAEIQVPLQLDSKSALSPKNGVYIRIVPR
Experiment: inhibition of thromboxane synthetase from rabbit platelet microsomes
Type: biochemical
Conditions: standard laboratory tests, read-out: molar concentration producing 50% inhibition of thromboxane synthetase
Description: For example, in standard laboratory tests, 1-(7-carboxy-7-methyl-2-octynyl)imidazole hydrochloride produce a 50% inhibition of thromboxane synthetase from rabbit platelet microsomes at the molar concentrations of 9×10^-9.

IC50: 9 nM
SMILES: CC(C)(CCCC#CCn1ccnc1)C(=O)O [Example 2, 1-(7-carboxy-7-methyl-2-octynyl)imidazole hydrochloride]

— patent publication US4374845A, “1-(7-Carboxy-2-octynyl)imidazole derivatives, pharmaceutical compositions and use” (Kissei Pharmaceutical Co., priority 1980, dated 1983)
